We go through 28 compounds from US20250163057A1, “DCN-1 MODULATING COMPOUNDS AND METHODS OF USE THEREOF” (Cellarity, Inc., priority 2023, published 2025).

Read-outs that look alike come from different tables or passages of the source.

The test system of assay [1] is Cullin-3 (CUL3) neddylation. As to the kind of experiment: AlphaLISA assay for Cullin-3 (CUL3) neddylation in TF 1 cells. The note with it: Homo sapiens, TF-1, 3 h, 3 hours treatment. The format is cell-based. The method in brief: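 Neddylated CUL3 was quantified by AlphaLISA in lysates of TF 1 cells exposed for 3 h to test compound in IMDM without supplements. Percent inhibition set between vehicle and 1 μM DI-1548 positive control; IC50 derived by Hill-equation fitting of dose-response curves.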
For orientation: Alpha assays give light when donor and acceptor beads are brought close together.

Assay [2] has as its target DCN1 (DCUND1) protein PONY domain (Homo sapiens (Human), UniProt Q96GG9). The assay is described as follows: TR-FRET assay, DCN1 binding with FAM-labeled probe. The method in brief: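 Tb-DCN1 PONY domain (E. coli, biotin/streptavidin-Tb); FAM-labelled non-covalent inhibitor probe; TritonX buffer, 200 mM NaCl; 5 nM DCN1 + 20 nM probe or 0.31 nM DCN1 + 900 nM total probe; 0.1% DMSO; TR-FRET read 1, 5, 24 hrs.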

Setting [3] is: 24 hr after treatment with compound, read-out: TR FRET IC50 24 hr.
Setting [4] is: TR FRET IC50 1 hr (nM), 1 hr after treatment with compound.
[5] abbreviates: read-out: TR FRET IC50 1 hr, 1 hr after treatment with compound.

Chain of DCN1 (DCUND1) protein PONY domain (Q96GG9 60-248): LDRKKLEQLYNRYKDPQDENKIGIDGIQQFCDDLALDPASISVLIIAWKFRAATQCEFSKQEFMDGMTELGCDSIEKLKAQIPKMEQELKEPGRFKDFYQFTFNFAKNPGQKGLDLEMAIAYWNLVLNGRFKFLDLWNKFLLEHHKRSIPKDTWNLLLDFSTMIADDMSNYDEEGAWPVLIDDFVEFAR

In the case of `CCN1C(=O)[C@@H](NC(=O)c2cccc(C(F)(F)F)c2)[C@@H](C2CC2)c2c(C(=O)N3[C@@H](C#N)C[C@@H]4C[C@@H]43)nn(C3CCOCC3)c21` [Compound I-703, N-((4S,5S)-3-((1S,3R,5S)-3-cyano-2-azabicyclo[3.1.0]hexane-2-carbonyl)-4-cyclopropyl-7-ethyl-6-oxo-1-(tetrahydro-2H-pyran-4-yl)-4,5,6,7-tetrahydro-1H-pyrazolo[3,4-b]pyridin-5-yl)-3-(trifluoromethyl)benzamide], the IC50 in assay [1] was over 1 µM; in assay [2] (setting [3]), 1000 to 3000 nM; in assay [2] (setting [4]), 1000 to 3000 nM.
As for `CCN1C(=O)[C@@H](NC(=O)c2nccc(C(F)(F)F)n2)[C@H](c2ccc(F)cc2)c2c(CN(C)C(=O)CC#N)nn(-c3ccccc3)c21` [Compound I-402, N-((4R,5S)-3-((2-cyano-N-methylacetamido)methyl)-7-ethyl-4-(4-fluorophenyl)-6-oxo-1-phenyl-4,5,6,7-tetrahydro-1H-pyrazolo[3,4-b]pyridin-5-yl)-4-(trifluoromethyl)pyrimidine-2-carboxamide], the IC50 in assay [1] fell in the range of 0.1 to 1 µM; in assay [2] (setting [3]), 1000 to 3000 nM; in assay [2] (setting [4]), 1000 to 3000 nM.
Turning to `CCN1C(=O)[C@@H](NC(=O)c2cccc3ncoc23)[C@@H](C2CC2)c2c(C(=O)N3[C@H](C#N)C[C@H]4C[C@H]43)nn(C3CCOCC3)c21` [Compound I-565], the IC50 was at most 0.1 µM in assay [1], at most 200 nM in assay [2] (setting [3]) and 200 to 1000 nM in assay [2] (setting [4]).
Regarding `C=CC(=O)N[C@H](C)c1nn(-c2ccccc2)c2c1[C@H](c1ccc(F)cc1)[C@@H](NC(=O)c1nccc(C(F)(F)F)n1)C(=O)N2CC` [Compound I-605], the results for the IC50 in assay [1], in assay [2] (setting [3]) and in assay [2] (setting [4]) were over 1 µM, 1000 to 3000 nM and 1000 to 3000 nM, respectively.
`CCN1C(=O)[C@@H](NC(=O)c2ccn(C(F)F)n2)[C@@H](C2CC2)c2c(C(=O)N3[C@H](C#N)C[C@H]4C[C@H]43)nn(C3CCOCC3)c21` [Compound I-432]: the half-inhibitory concentration (IC50) was 0.1 to 1 µM in assay [1], at most 200 nM in assay [2] (setting [3]) and 200 to 1000 nM in assay [2] (setting [4]).
Consider `CCN1C(=O)[C@@H](NC(=O)c2cccc(C(F)(F)F)c2)[C@@H](c2ccc(F)cc2)c2c(CNC/C=C/C(=O)N3CCCC3)nn(-c3ccccc3)c21` [Compound I-400], for which the IC50 is 0.1 to 1 µM in assay [1], at most 200 nM in assay [2] (setting [3]) and at most 200 nM in assay [2] (setting [5]).
Consider `CCN1C(=O)[C@H](NC(=O)c2cccc(C(F)(F)F)c2)[C@H](c2ccc(F)cc2)c2c(C(=O)N(CC#N)C3CC3)nn(-c3ccccc3)c21` (stereo in doubt) [Compound I-674], for which the IC50 in assay [1] is over 1 µM; in assay [2] (setting [3]), 1000 to 3000 nM; in assay [2] (setting [4]) it was 1000 to 3000 nM.
Consider `CCN1C(=O)[C@@H](NC(=O)c2cccc(C(F)(F)F)c2)[C@@H](c2ccc(F)cc2)c2c(C(=O)N3CS(=O)(=O)C[C@H]3C#N)nn(-c3ccccc3)c21` [Compound I-465], for which the IC50 in assay [1] is at most 0.1 µM; in assay [2] (setting [3]), at most 200 nM; in assay [2] (setting [5]), at most 200 nM.
On to `CCN1C(=O)[C@@H](NC(=O)c2nccc(C(F)(F)F)n2)[C@H](c2ccc(F)cc2)c2c(CNC(=O)/C=C/C(=O)N3CCCC3)nn(-c3ccccc3)c21` [Compound I-495], for which the IC50 in assay [1] was over 1 µM; in assay [2] (setting [3]), 200 to 1000 nM; in assay [2] (setting [4]), 200 to 1000 nM.
For the compound `C#C[C@@H]1CCCN1C(=O)c1nn(C2CCOCC2)c2c1[C@H](C1CC1)[C@H](NC(=O)c1cccc(C(F)(F)F)c1)C(=O)N2CC` [Compound I-594], the half-inhibitory concentration (IC50) in assay [1] is over 1 µM; in assay [2] (setting [3]), 1000 to 3000 nM; in assay [2] (setting [4]), 1000 to 3000 nM.
As for `CCN1C(=O)[C@@H](NC(=O)c2cccc(C(F)(F)F)c2)[C@@H](c2ccc(F)cc2)c2c(CN(C)CC#N)nn(-c3ccccc3)c21` [Compound I-417], the values for the IC50 in assay [1], in assay [2] (setting [3]) and in assay [2] (setting [4]) were 0.1 to 1 µM, 200 to 1000 nM and 1000 to 3000 nM, respectively.
As to `CCN1C(=O)[C@@H](NC(=O)c2cccc(C(F)(F)F)c2)[C@@H](C2CCC2)c2c(C(=O)N(CC#N)C3CC3)nn(C3CCOCC3)c21` [Compound I-515], the results for the IC50 in assay [1], in assay [2] (setting [3]) and in assay [2] (setting [4]) were 0.1 to 1 µM, at most 200 nM and 200 to 1000 nM, respectively.
On to `CCN1C(=O)[C@@H](NC(=O)c2cccc(C(F)(F)F)c2)[C@@H](c2ccc(F)cc2)c2c(CN(C#N)CCCN(C)C3COC3)nn(-c3ccccc3)c21` [Compound I-646], for which the figures for the concentration for half-maximal inhibition (IC50) in assay [1], in assay [2] (setting [3]) and in assay [2] (setting [5]) were at most 0.1 µM, at most 200 nM and at most 200 nM, respectively.
With `CCN1C(=O)[C@@H](NC(=O)c2ccc3ncsc3c2)[C@@H](C2CC2)c2c(C(=O)N3[C@H](C#N)C[C@H]4C[C@H]43)nn(C3CCOCC3)c21` [Compound I-669], the IC50 in assay [1] was 0.1 to 1 µM; in assay [2] (setting [3]), 200 to 1000 nM; in assay [2] (setting [4]), 1000 to 3000 nM.
For `CCN1C(=O)[C@H](NC(=O)c2cccc(C(F)(F)F)c2)[C@H](c2ccc(F)cc2)c2c(C(=O)N3CCNC[C@H]3C#N)nn(-c3ccccc3)c21` [Compound I-453] the same measures were over 1 µM, 200 to 1000 nM and 1000 to 3000 nM.
On to `CCN1C(=O)[C@@H](NC(=O)c2cccc(C(F)(F)F)c2)[C@@H](c2ccc(F)cc2)c2c(CN(C)C/C=C/C(=O)OC(C)(C)C)nn(-c3ccccc3)c21` [Compound I-604, tert-butyl (E)-4-((((4S,5S)-7-ethyl-4-(4-fluorophenyl)-6-oxo-1-phenyl-5-(3-(trifluoromethyl)benzamido)-4,5,6,7-tetrahydro-1H-pyrazolo[3,4-b]pyridin-3-yl)methyl)(methyl)amino)but-2-enoate], for which the IC50 in assay [1] was over 1 µM; in assay [2] (setting [3]) it was 1000 to 3000 nM; in assay [2] (setting [4]), 1000 to 3000 nM.
On to `CCN1C(=O)[C@@H](NC(=O)c2cccc(C(F)(F)F)c2)[C@@H](C2CC2)c2c(C(=O)N(C)C(C)C#N)nn(-c3ccccc3)c21` (mixture of isomers) [Compound I-543], for which the IC50 in assay [1] is 0.1 to 1 µM; in assay [2] (setting [3]), at most 200 nM; in assay [2] (setting [5]), at most 200 nM.
On to `C[C@@H](NC#N)c1nn(-c2ccccc2)c2c1[C@@H](c1ccc(F)cc1)[C@@H](NC(=O)c1cccc(C(F)(F)F)c1)C(=O)N2CCO` [Compound I-498], for which the values for the IC50 in assay [1], in assay [2] (setting [3]) and in assay [2] (setting [4]) were over 1 µM, 1000 to 3000 nM and 1000 to 3000 nM, respectively.
For the compound `CCN1C(=O)[C@@H](NC(=O)c2cccc(C(F)(F)F)c2)[C@@H](c2ccc(F)cc2)c2c(CN(C#N)CCN(C)C)nn(-c3ccccc3)c21` (racemic) [Compound I-486], the IC50 in assay [1] was at most 0.1 µM; in assay [2] (setting [3]), at most 200 nM; in assay [2] (setting [4]), 200 to 1000 nM.
For `CCN1C(=O)[C@@H](NC(=O)c2nccc(C(F)(F)F)n2)[C@H](c2ccc(F)cc2)c2c(CC(=O)N(C)CC#N)nn(-c3ccccc3)c21` [Compound I-640, N-((4R,5S)-3-(2-((cyanomethyl)(methyl)amino)-2-oxoethyl)-7-ethyl-4-(4-fluorophenyl)-6-oxo-1-phenyl-4,5,6,7-tetrahydro-1H-pyrazolo[3,4-b]pyridin-5-yl)-4-(trifluoromethyl)pyrimidine-2-carboxamide], the results for the 50% inhibitory concentration (IC50) in assay [1], in assay [2] (setting [3]) and in assay [2] (setting [4]) were 0.1 to 1 µM, 1000 to 3000 nM and 1000 to 3000 nM, respectively.
For the compound `CCN1C(=O)[C@@H](NC(=O)c2cccc(C(F)(F)F)c2)[C@@H](C2CC2)c2c(C(=O)N(C)C(C)C#N)nn(C3CC3)c21` (stereo partly drawn) [Compound I-492], the figures for the half-maximal inhibitory concentration (IC50) in assay [1], in assay [2] (setting [3]) and in assay [2] (setting [4]) were at most 0.1 µM, 200 to 1000 nM and 200 to 1000 nM, respectively.
In the case of `CCN1C(=O)[C@H](NC(=O)c2cccc(C(F)(F)F)c2)[C@@H](c2ccc(F)cc2)c2c(C3(NC#N)CC3)nn(-c3ccccc3)c21` (racemic) [Compound I-84], the IC50 in assay [1] was over 1 µM; in assay [2] (setting [3]), 1000 to 3000 nM; in assay [2] (setting [4]), 1000 to 3000 nM.
Regarding `CCN1C(=O)[C@H](NC(=O)c2cccc(C(F)(F)F)c2)[C@@H](c2ccc(F)cc2)c2c(C3(N(C)C#N)CC3)nn(-c3ccccc3)c21` (racemic) [Compound I-76], the IC50 in assay [1] was over 1 µM; in assay [2] (setting [3]), 1000 to 3000 nM; in assay [2] (setting [4]), 1000 to 3000 nM.
As to `CCN1C(=O)[C@H](NC(=O)c2cccc(C(F)(F)F)c2)[C@H](c2ccc(F)cc2)c2c(C(=O)N3CCC[C@H]3C#N)nn(-c3cccc(OCCN(C)C4COC4)c3)c21` [Compound I-584], the results for the IC50 in assay [1], in assay [2] (setting [3]) and in assay [2] (setting [4]) were over 1 µM, 1000 to 3000 nM and 1000 to 3000 nM, respectively.
As for `CCN1C(=O)[C@H](NC(=O)c2cccc(C(F)(F)F)c2)[C@H](c2ccc(F)cc2)c2c(C(=O)N3CCC[C@H]3C#N)nn(-c3cccc(OCCN4CC5(COC5)C4)c3)c21` [Compound I-647], the IC50 in assay [1] is over 1 µM; in assay [2] (setting [3]), 1000 to 3000 nM; in assay [2] (setting [4]), 1000 to 3000 nM.
With `CCN1C(=O)[C@@H](NC(=O)c2cccc(C(F)(F)F)c2)[C@@H](c2ccc(F)cc2)c2c(C(=O)N3[C@H](C)CC[C@H]3C#N)nn(C3CCOCC3)c21` [Compound I-416], the IC50 in assay [1] lay in the range of 0.1 to 1 µM; in assay [2] (setting [3]), 200 to 1000 nM; in assay [2] (setting [4]), 1000 to 3000 nM.
Turning to `CCN1C(=O)[C@@H](NC(=O)c2ccc3nn[nH]c3c2)[C@@H](C2CC2)c2c(C(=O)N3[C@H](C#N)C[C@H]4C[C@H]43)nn(C3CCOCC3)c21` [Compound I-705], the IC50 was over 1 µM in assay [1], 1000 to 3000 nM in assay [2] (setting [3]) and 1000 to 3000 nM in assay [2] (setting [4]).
Regarding `CCCn1nc(C(=O)N2CCC[C@H]2C#N)c2c1N(CC)C(=O)[C@@H](NC(=O)c1cccc(C(F)(F)F)c1)[C@H]2C1CC1` [Compound I-467], the results for the IC50 in assay [1], in assay [2] (setting [3]) and in assay [2] (setting [4]) were 0.1 to 1 µM, at most 200 nM and 1000 to 3000 nM, respectively.

For orientation: IC50 means the concentration at which inhibition is half-maximal.
